# pKd: −log10 of the molar value.
# Key:
# [1] = target: T1, human Nav1.7 (hNav1.7) voltage-gated sodium channel alpha subunit (Homo sapiens, UniProt Q15858); assay: Qube automated patch-clamp electrophysiology, HEK293-hNav1.[…], inactivated state (-70 mV); assay type: cell-based
# T1 construct: gene SCN9A; alpha subunit, stably expressed in HEK293 cells
# [2] = target: T1, human Nav1.7 (hNav1.7) voltage-gated sodium channel alpha subunit; assay: Qube automated patch-clamp electrophysiology, HEK293-hNav1.[…], inactivated state (-70 mV); also thallium flux assay IC50 […]; assay type: cell-based
# T1 sequence (Q15858 whole entry): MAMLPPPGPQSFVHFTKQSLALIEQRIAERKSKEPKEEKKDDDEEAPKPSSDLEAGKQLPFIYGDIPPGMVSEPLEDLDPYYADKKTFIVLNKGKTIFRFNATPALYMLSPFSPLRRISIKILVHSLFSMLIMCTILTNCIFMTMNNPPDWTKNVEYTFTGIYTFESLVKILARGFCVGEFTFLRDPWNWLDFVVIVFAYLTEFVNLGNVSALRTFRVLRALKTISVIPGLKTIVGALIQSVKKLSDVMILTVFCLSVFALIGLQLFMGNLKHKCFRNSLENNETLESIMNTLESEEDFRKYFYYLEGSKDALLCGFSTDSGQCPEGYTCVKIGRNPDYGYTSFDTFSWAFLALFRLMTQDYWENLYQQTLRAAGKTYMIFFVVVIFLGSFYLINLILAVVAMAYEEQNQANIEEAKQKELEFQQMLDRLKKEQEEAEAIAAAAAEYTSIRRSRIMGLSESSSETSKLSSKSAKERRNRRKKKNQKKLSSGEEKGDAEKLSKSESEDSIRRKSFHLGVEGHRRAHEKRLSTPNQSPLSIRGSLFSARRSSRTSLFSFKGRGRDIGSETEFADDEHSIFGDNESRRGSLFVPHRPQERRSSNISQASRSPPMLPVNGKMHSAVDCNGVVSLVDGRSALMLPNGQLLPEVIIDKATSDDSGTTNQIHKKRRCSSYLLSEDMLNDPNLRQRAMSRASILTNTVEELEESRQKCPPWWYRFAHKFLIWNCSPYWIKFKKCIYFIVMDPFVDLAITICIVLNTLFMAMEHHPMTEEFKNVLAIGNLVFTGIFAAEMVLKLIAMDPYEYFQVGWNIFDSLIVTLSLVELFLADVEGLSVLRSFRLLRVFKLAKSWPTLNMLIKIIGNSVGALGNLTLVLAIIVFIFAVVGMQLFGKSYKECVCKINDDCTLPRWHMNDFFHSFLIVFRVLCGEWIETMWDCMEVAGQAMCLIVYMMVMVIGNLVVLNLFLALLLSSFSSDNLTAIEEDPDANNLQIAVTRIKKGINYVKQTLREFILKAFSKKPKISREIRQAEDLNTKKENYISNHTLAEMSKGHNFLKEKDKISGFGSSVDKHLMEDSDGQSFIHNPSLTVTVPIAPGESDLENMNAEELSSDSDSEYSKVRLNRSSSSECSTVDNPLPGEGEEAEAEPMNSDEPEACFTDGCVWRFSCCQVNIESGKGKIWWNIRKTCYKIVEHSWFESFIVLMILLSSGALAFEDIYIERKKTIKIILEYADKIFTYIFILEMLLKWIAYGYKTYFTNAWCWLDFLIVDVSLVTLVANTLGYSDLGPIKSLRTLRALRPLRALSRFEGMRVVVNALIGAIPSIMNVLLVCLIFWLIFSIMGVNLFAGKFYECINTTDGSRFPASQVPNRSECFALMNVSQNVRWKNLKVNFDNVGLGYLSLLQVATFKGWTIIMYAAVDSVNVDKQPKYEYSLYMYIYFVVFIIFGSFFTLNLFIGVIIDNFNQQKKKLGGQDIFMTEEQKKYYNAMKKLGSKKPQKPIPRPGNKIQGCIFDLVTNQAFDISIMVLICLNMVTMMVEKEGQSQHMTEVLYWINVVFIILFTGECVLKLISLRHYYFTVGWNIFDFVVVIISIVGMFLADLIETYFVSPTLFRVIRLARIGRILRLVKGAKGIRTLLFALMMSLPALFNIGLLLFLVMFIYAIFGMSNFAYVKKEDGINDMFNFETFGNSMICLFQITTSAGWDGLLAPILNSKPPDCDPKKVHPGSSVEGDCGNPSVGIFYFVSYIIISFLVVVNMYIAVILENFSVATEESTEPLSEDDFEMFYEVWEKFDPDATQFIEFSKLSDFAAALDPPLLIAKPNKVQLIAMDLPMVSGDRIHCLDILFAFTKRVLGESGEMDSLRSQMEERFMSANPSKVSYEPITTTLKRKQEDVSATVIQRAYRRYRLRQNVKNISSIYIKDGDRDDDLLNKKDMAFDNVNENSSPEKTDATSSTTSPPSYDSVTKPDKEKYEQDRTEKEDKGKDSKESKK
pKd [1],pKd [2],SMILES
4.60,–,"CCCCCCCCCCCCCCCC(=O)OC[C@H](CO[C@H]1O[C@H](CS(=O)(=O)O)[C@@H](O)[C@H](O)[C@H]1O)OC(=O)CCCCCCCCCCCCCCC [compound 2, sulfoquinovosyldiacylglycerin]"
–,4.30,"CCCCCCCC/C=C\CCCCCCCC(=O)OC(COC(=O)CCCCCCCCCCCCCCC)CO[C@@H]1O[C@H](CO)[C@H](O)[C@H](O)[C@H]1O (stereo partly drawn) [compound 1, 1-palmitoyl-2-oleoyl-3-(β-D-galactosyl)-glycerol]"
